The values below come from patent publication US8637665B2, “Pyrrolo[2,L-C][L,4]benzodiazepine-benzothiazole or benzoxazole conjugates linked through piperazine moiety and process for the preparation thereof” (priority 2010, dated 2014).

In assay [1] the test system is eight tumour cells lines derived from seven cancer types. Kind of assay: In vitro anticancer activity, SRB assay, panel of eight cell lines. It is filed as cell-based. To be noted: Homo sapiens, range over the eight cell lines per compound; read-out: GI50 range against cancer cell lines. The procedure: (§1) Anticancer activity: In vitro biological activity studies were carried out at the Advance Center for Treatment Research & Education in Cancer (ACTREC), Navi Mumbai.
(§2) The compounds were evaluated for in vitro anticancer activity against eight tumour cells lines derived from seven cancer types (non-small-cell lung, colon, oral, cervix, ovarian, prostate, and breast cancer) as shown in Table 2. For each compound, dose response curves for each cell line were measured at a minimum of five concentrations at 10 fold dilutions. A protocol of 48 h continuous drug exposure was used and a sulforhodamine B (SRB) protein assay was used to estimate cell viability or growth. The concentration causing 50% cell growth inhibition (GI50) and 50% cell death (LC50, −50% growth) compared with the control was calculated. Compounds 9a-9l have been evaluated for their in vitro cytotoxicity in eight cell lines from seven human cancer types of lung (Hop-62, A-549) colon (COLO-205) cervix (Si—Ha), ovary (A-2780), prostate (PC3) breast (MCF7), oral (KB). The results are expressed as percent of cell growth determined relative to that of untreated control cells (Table-8 and table-9).

Assay [2] relates to duplex-form calf thymus DNA (CT-DNA). Description: Thermal denaturation studies with calf thymus DNA (DNA binding affinity). To be noted: [PBD]:[DNA] 1:5, CT-DNA 100 μM, ligand 20 μM, pH 7.00. The procedure:
Compounds have been subjected to thermal denaturation studies with duplex-form calf thymus DNA (CT-DNA) using an modification of a reported procedure (Newman, M. S. Carcinog-compr. Surv. 1976,1, 203; (b) Hecht, S. S.; Loy, M.; Hoffman, Carcinog-compr. Surv. 1976, 1, 325). Working solutions in aqueous buffer (10 mM NaH2PO4/Na2HPO4, 1 mM Na2EDTA, pH 7.00+0.01) containing CT-DNA (100 μm in phosphate) and the PBD (20 μm) have been prepared by addition of concentrated PBD solutions in DMSO to obtain a fixed [PBD]/[DNA] molar ratio of 1:5. The DNA-PBD solutions have been incubated at 37° C. for 0 and 18 h prior to analysis. Samples have been monitored at 260 using a Beckman DU-800 spectrophotometer fitted with high performance temperature controller, and heated at 1° C. min^−1 in the 40-110° C. range. DNA helix→coil transition temperatures (Tm) have been obtained from the maxima in the d(A260)/dT derivative plots. Drug-induced alterations in DNA melting behavior are given by: ΔTm=Tm(DNA+PBD)−Tm(DNA alone), where the Tm value for the PBD-free CT-DNA is 69.1±0.01.
The DNA binding activity for these novel C8-linked benzothiazole, benzoxazole-PBD hybrids has been examined by thermal denaturation studies using calf thymus (CT) DNA. […] The data for the compounds 9a-n is included in Table 7 for comparison.

Assay [3] has as its system PC 3 (prostate cancer) cell line. Kind of assay: cells. Conditions: Homo sapiens, 48 h; for GI50: read-out: GI50 PC 3; for CC50: read-out: LC50 Pc 3, 50% cell death, 48 h drug exposure, SRB. It is filed as cell-based. As to the method:
as §1, §2

Assay [4] relates to HOP 62 (lung cancer) cell line. Kind of assay: cells. It is filed as cell-based. Conditions: Homo sapiens, HOP-62, 48 h; for GI50: read-out: GI50 HOP 62, 48 h drug exposure, SRB, mean of three determinations; for LC50: read-out: LC50 HOP 62, 50% cell death, 48 h drug exposure, SRB. The procedure: as §1, §2
The test system of assay [5] is SiHa (cervix cancer) cell line. Kind of assay: cells. Conditions: Homo sapiens, SiHa, 48 h; for GI50: read-out: GI50 SiHa, 48 h drug exposure, SRB, mean of three determinations; for LC50 (concentration causing 50% cell death): read-out: LC50 SiHa, 50% cell death, 48 h drug exposure, SRB. It is filed as cell-based. As to the method: as §1, §2
Assay [6] has as its system A 2780 (ovary cancer) cell line. Kind of assay: cells. It is filed as cell-based. To be noted: Homo sapiens, A2780, 48 h; for GI50: read-out: GI50 A 2780, 48 h drug exposure, SRB, mean of three determinations; for CC50: read-out: LC50 A 2780, 50% cell death, 48 h drug exposure, SRB. The procedure:
as §1, §2

In assay [7] the test system is A 549 (lung cancer) cell line. Kind of assay: cells. It is filed as cell-based. Conditions: Homo sapiens, A549, 48 h; for GI50: read-out: GI50 A 549, 48 h drug exposure, SRB, mean of three determinations; for CC50: read-out: LC50 A 549, 50% cell death, 48 h drug exposure, SRB. The procedure: as §1, §2
Assay [8] has as its system Colo 205 (colon cancer) cell line. Kind of assay: cells. It counts as cell-based. To be noted: Homo sapiens, COLO 205, 48 h; for GI50: read-out: GI50 Colo 205, 48 h drug exposure, SRB, mean of three determinations; for CC50: read-out: LC50 Colo 205. As to the method: as §1, §2
Assay [9] deals with MCF 7 (breast cancer) cell line. Description: cells. It counts as cell-based. To be noted: Homo sapiens, MCF7, 48 h; for GI50: read-out: GI50 MCF 7; for LC50 (concentration causing 50% cell death): read-out: LC50 MCF 7, 50% cell death, 48 h drug exposure, SRB. As to the method:
as §1, §2

The test system of assay [10] is KB (oral cancer) cell line. Description: In vitro anticancer activity, SRB assay, KB. It is filed as cell-based, human. Conditions: Homo sapiens, 48 h; for GI50: read-out: GI50 KB, 48 h drug exposure, SRB, mean of three determinations; for CC50: read-out: LC50 KB, 50% cell death, 48 h drug exposure, SRB. The procedure:
as §1, §2

Assay [11] relates to duplex-form calf thymus DNA (CT-DNA). To be noted: comparative data, hybrids without piperazine, cited from earlier work.

SMILES strings stand for the structures.

`COc1cc2c(cc1OCCCN1CCN(CCCOc3ccc(-c4nc5ccccc5s4)cc3)CC1)N=C[C@@H]1CCCN1C2=O` [Compound 9a]: the GI50 is no more than 130 nM in assay [1]; 120 nM in [3]; 100 nM in assay [4]; 130 nM in assay [5]; 108 nM in assay [6]; 130 nM in assay [7]. Moreover, the 50% growth inhibitory concentration (GI50) in assay [8] was 100 nM; in assay [9], less than 10 nM; in assay [10], 120 nM. In [2], the “ΔTm after incubation at 37° C. for 0 h” value was determined as 10.2 °C. Moreover, the “ΔTm after incubation at 37° C. for 18 h” value in assay [2] turned out to be 10.8 °C. In addition, the CC50 in assay [3] was 28000 nM; in assay [6], 23000 nM; in assay [7] it was greater than 100000 nM; in assay [8] it was greater than 100000 nM; in assay [10], 2400 nM. Further, the LC50 in [4] is 27000 nM. The figures for the LC50 (concentration causing 50% cell death) in assay [5] and in assay [9] were 27500 nM and 1900 nM, respectively.
For the compound `COc1cc(-c2nc3ccccc3s2)ccc1OCCCN1CCN(CCCOc2cc3c(cc2OC)C(=O)N2CCC[C@H]2C=N3)CC1` [Compound 9b], the GI50 is no more than 120 nM in [1]; less than 10 nM in assay [3]; less than 10 nM in assay [4]; less than 10 nM in [5]; less than 10 nM in assay [6]; 120 nM in assay [7]. For the same compound, the results for the GI50 in [8], in assay [9] and in assay [10] were 90 nM, less than 10 nM and less than 10 nM, respectively. Further, the “ΔTm after incubation at 37° C. for 0 h” value in [2] is 12.1 °C. In addition, in assay [2], the “ΔTm after incubation at 37° C. for 18 h” value was 12.7 °C. The CC50 in [3] was 2400 nM; in [6], 120 nM; in [7], greater than 100000 nM; in [8], greater than 100000 nM; in assay [10] it was 2200 nM. Further, in assay [4], the median lethal concentration (LC50) is 28000 nM. In addition, the LC50 (concentration causing 50% cell death) in [5] was 2400 nM; in [9], less than 10 nM.
As to `COc1cc2c(cc1OCCCN1CCN(CCCOc3ccc(-c4nc5ccc(F)cc5s4)cc3)CC1)N=C[C@@H]1CCCN1C2=O` [Compound 9c], the GI50 is no more than 130 nM in assay [1]; 110 nM in assay [3]; 110 nM in [4]; 130 nM in assay [5]; 116 nM in [6]; less than 10 nM in assay [7]. In addition, the GI50 in assay [8] was 130 nM; in assay [9], less than 10 nM; in assay [10], 110 nM. In addition, the “ΔTm after incubation at 37° C. for 0 h” value in assay [2] came out at 10.3 °C. In [2], the “ΔTm after incubation at 37° C. for 18 h” value turned out to be 10.7 °C. The CC50 was 2300 nM in assay [3]; 2300 nM in [6]; 33000 nM in [7]; greater than 100000 nM in assay [8]; 26000 nM in assay [10]. Moreover, the LC50 in [4] is 29000 nM. Also, the LC50 (concentration causing 50% cell death) in assay [5] amounted to 27000 nM; in assay [9], 170 nM.
Consider `COc1cc2c(cc1OCCCN1CCN(CCCOc3cccc(-c4nc5ccccc5s4)c3)CC1)N=C[C@@H]1CCCN1C2=O` [Compound 9d, 7-Methoxy-8-[3-(4-{3-[3(1,3-benzothiazol-2-yl)-phenoxy]propyl}piperazin-1-yl)propyl]oxy-(11aS)-1,2,3,11a-tetrahydro-5H-pyrrolo[2,1-c][1,4]benzodiazepin-5-one], for which the concentration for 50% growth inhibition (GI50) is no more than 120 nM in [1]; less than 10 nM in [3]; less than 10 nM in assay [4]; 120 nM in assay [5]; 99 nM in [6]; less than 10 nM in [7]. Also, the GI50 in assay [8] is 110 nM; in assay [9] it was 10 nM; in assay [10] it was 110 nM. The “ΔTm after incubation at 37° C. for 0 h” value in assay [2] turned out to be 11.2 °C. The “ΔTm after incubation at 37° C. for 18 h” value in assay [2] worked out at 11.5 °C. Besides, the CC50 in assay [3] is 28000 nM; in [6] it was 2400 nM; in assay [7], greater than 100000 nM; in [8] it was greater than 100000 nM; in assay [10] it was 2300 nM. For the same compound, the LC50 in assay [4] was determined as 27000 nM. The figures for the LC50 (concentration causing 50% cell death) in [5] and in assay [9] were 26000 nM and 2100 nM, respectively.
As for `COc1cc2c(cc1OCCCCN1CCN(CCCCOc3cccc(-c4nc5ccccc5s4)c3)CC1)N=C[C@@H]1CCCN1C2=O` [Compound 9h, 7-Methoxy-8-[4-(4-{4-[3(1,3-benzothiazol-2-yl)-phenoxy]butyl}piperazin-1-yl)butyl]oxy-(11aS)-1,2,3,11a-tetrahydro-5H-pyrrolo[2,1-c][1,4]benzodiazepin-5-one], the “ΔTm after incubation at 37° C. for 0 h” value in assay [2] was 11.9 °C. Moreover, in assay [2], the “ΔTm after incubation at 37° C. for 18 h” value worked out at 12.3 °C. The GI50 stood at 140 nM in [3]; 100 nM in assay [4]; 130 nM in assay [5]; 109 nM in assay [6]; 120 nM in [7]; 160 nM in [8]. For the same compound, the GI50 in assay [9] and in assay [10] was 120 nM in each case. Moreover, the CC50 is 2400 nM in assay [3]; 2300 nM in assay [6]; greater than 100000 nM in assay [7]; greater than 100000 nM in assay [8]; 200 nM in assay [10]. In addition, the LC50 in assay [4] came out at 27000 nM. Moreover, the values for the LC50 (concentration causing 50% cell death) in [5] and in assay [9] were 27000 nM and 2200 nM, respectively.
As for `COc1cc2c(cc1OCCCCCOc1ccc(-c3nc4ccccc4o3)cc1)N=C[C@@H]1CCCN1C2=O` [Compound 30a], in [11], the “ΔTm after incubation at 37° C. for 0 h (PBD hybrids with out piperizine)” value is 4.1 °C and the “ΔTm after incubation at 37° C. for 18 h (PBD hybrids with out piperizine)” value is 4.3 °C.
In the case of `COc1cc(-c2nc3ccccc3o2)ccc1OCCCCCOc1cc2c(cc1OC)C(=O)N1CCC[C@H]1C=N2` [Compound 30b], in assay [11], the “ΔTm after incubation at 37° C. for 0 h (PBD hybrids with out piperizine)” value was 4.2 °C and the “ΔTm after incubation at 37° C. for 18 h (PBD hybrids with out piperizine)” value is 4.3 °C.
